The nature of series [1]: activity coefficient (dimensionless); of the first substance listed, at infinite dilution; xn = mol fraction of the nth substance listed. The settings on record: Gas, Chromatography, x1 = 0.
For series [2] the following is noted: 323.15 K; 101.33 kPa; Liquid; Vibrating tube method.

Values joined by “and” are separate entries in the source; they are usually repeats but may differ in a detail not shown here. Equal values may be shown once. ± gives the expanded uncertainty stated by the source.

On to `C=CCCCCCCCC` [1-decene] + CCCCCCCCCCCCCC[P+](CCCCCC)(CCCCCC)CCCCCC.F[P-](F)(F)(F)(F)F, for which the activity coefficient in series [1] (313.15 K) is 2.81 and 2.79; in series [1] (333.15 K), 2.29 and 2.28; in series [1] (353.15 K) it was 1.85 and 1.83; in series [1] (363.15 K), 1.74 and 1.75.

For `C#CCCCCCCCC` [1-decyne] + CCCCCCCCCCCCCC[P+](CCCCCC)(CCCCCC)CCCCCC.F[P-](F)(F)(F)(F)F, the activity coefficient is 2.76 and 2.84 in series [1] (313.15 K); 2.49 and 2.32 in series [1] (333.15 K); 1.83 and 1.85 in series [1] (353.15 K); 1.74 and 1.72 in series [1] (363.15 K).

For `C=CCCCCC` [1-heptene] + CCCCCCCCCCCCCC[P+](CCCCCC)(CCCCCC)CCCCCC.F[P-](F)(F)(F)(F)F, the activity coefficient in series [1] (313.15 K) was 1.86 and 1.9; in series [1] (333.15 K), 1.58 and 1.59; in series [1] (353.15 K), 1.32 and 1.36; in series [1] (363.15 K), 1.27 and 1.3.

As for `C#CCCCCC` [1-heptyne] + CCCCCCCCCCCCCC[P+](CCCCCC)(CCCCCC)CCCCCC.F[P-](F)(F)(F)(F)F, the activity coefficient in series [1] (313.15 K) was 1.96 and 1.8; in series [1] (333.15 K) it was 1.59 and 1.61; in series [1] (353.15 K), 1.36 and 1.32; in series [1] (363.15 K), 1.3 and 1.27.

For the molecule `C#CCCCC` [1-hexyne] + CCCCCCCCCCCCCC[P+](CCCCCC)(CCCCCC)CCCCCC.F[P-](F)(F)(F)(F)F, the activity coefficient was 1.66 and 1.71 in series [1] (313.15 K); 1.42 and 1.43 in series [1] (333.15 K); 1.16 and 1.24 in series [1] (353.15 K); 1.16 and 1.14 in series [1] (363.15 K).

As to `C=CCCCCCCC` [1-nonene] + CCCCCCCCCCCCCC[P+](CCCCCC)(CCCCCC)CCCCCC.F[P-](F)(F)(F)(F)F, the activity coefficient in series [1] (313.15 K) is 2.4 and 2.5; in series [1] (333.15 K), 2.01 and 1.98; in series [1] (353.15 K), 1.62 and 1.63; in series [1] (363.15 K), 1.54 and 1.55.

For the molecule `C#CCCCCCCC` [1-nonyne] + CCCCCCCCCCCCCC[P+](CCCCCC)(CCCCCC)CCCCCC.F[P-](F)(F)(F)(F)F, the activity coefficient in series [1] (313.15 K) was 2.5 and 2.4; in series [1] (333.15 K), 1.96 and 2.02; in series [1] (353.15 K) it was 1.65 and 1.59; in series [1] (363.15 K), 1.56 and 1.52.

On to `C#CCCCCCC` [1-octyne] + CCCCCCCCCCCCCC[P+](CCCCCC)(CCCCCC)CCCCCC.F[P-](F)(F)(F)(F)F, for which the activity coefficient in series [1] (313.15 K) was 2.19 and 2.03; in series [1] (333.15 K), 1.79 and 1.75; in series [1] (353.15 K) it was 1.44 and 1.56; in series [1] (363.15 K), 1.41 and 1.46.

As for `C=CCCC` [1-pentene] + CCCCCCCCCCCCCC[P+](CCCCCC)(CCCCCC)CCCCCC.F[P-](F)(F)(F)(F)F, the activity coefficient in series [1] (313.15 K) was 1.42 and 1.54; in series [1] (333.15 K), 1.24 and 1.37; in series [1] (353.15 K), 1.07 and 1.13; in series [1] (363.15 K), 1.05 and 1.07.

Turning to `C#CCCC` [1-pentyne] + CCCCCCCCCCCCCC[P+](CCCCCC)(CCCCCC)CCCCCC.F[P-](F)(F)(F)(F)F, the activity coefficient in series [1] (313.15 K) was 1.52 and 1.44; in series [1] (333.15 K), 1.28 and 1.27; in series [1] (353.15 K), 1.05 and 1.15; in series [1] (363.15 K), 1.03 and 1.09.

In the case of `CC(C)=O` [acetone] + CCCCCCCCCCCCCC[P+](CCCCCC)(CCCCCC)CCCCCC.F[P-](F)(F)(F)(F)F, the activity coefficient in series [1] (313.15 K) was 0.648 and 0.694; in series [1] (333.15 K), 0.517 and 0.507; in series [1] (353.15 K), 0.388 and 0.404; in series [1] (363.15 K), 0.371 and 0.381.

For the molecule `c1ccccc1` [benzene] + CCCCCCCCCCCCCC[P+](CCCCCC)(CCCCCC)CCCCCC.F[P-](F)(F)(F)(F)F, the activity coefficient in series [1] (313.15 K) is 0.659 and 0.705; in series [1] (333.15 K) it was 0.543 and 0.553; in series [1] (353.15 K), 0.438 and 0.448; in series [1] (363.15 K) it was 0.415 and 0.419.

`CCC(C)=O` [butanone] + CCCCCCCCCCCCCC[P+](CCCCCC)(CCCCCC)CCCCCC.F[P-](F)(F)(F)(F)F: the activity coefficient is 0.735 and 0.677 in series [1] (313.15 K); 0.542 and 0.524 in series [1] (333.15 K); 0.41 and 0.396 in series [1] (353.15 K); 0.373 and 0.375 in series [1] (363.15 K).

For the molecule `C1CCCCCC1` [cycloheptane] + CCCCCCCCCCCCCC[P+](CCCCCC)(CCCCCC)CCCCCC.F[P-](F)(F)(F)(F)F, the activity coefficient in series [1] (313.15 K) is 1.57 and 1.6; in series [1] (333.15 K), 1.3 and 1.33; in series [1] (353.15 K) it was 1.08 and 1.1; in series [1] (363.15 K), 1.03 and 1.05.

With `C1CCCCC1` [cyclohexane] + CCCCCCCCCCCCCC[P+](CCCCCC)(CCCCCC)CCCCCC.F[P-](F)(F)(F)(F)F, the activity coefficient is 1.46 and 1.48 in series [1] (313.15 K); 1.23 and 1.21 in series [1] (333.15 K); 1.05 and 0.969 in series [1] (353.15 K); 0.991 and 0.951 in series [1] (363.15 K).

As to `C1CCCCCCCC1` [cyclononane] + CCCCCCCCCCCCCC[P+](CCCCCC)(CCCCCC)CCCCCC.F[P-](F)(F)(F)(F)F, the activity coefficient in series [1] (313.15 K) is 1.88 and 1.89; in series [1] (333.15 K), 1.57 and 1.6; in series [1] (353.15 K), 1.32 and 1.33; in series [1] (363.15 K) it was 1.23 and 1.3.

For the molecule `C1CCCCCCC1` [cyclooctane] + CCCCCCCCCCCCCC[P+](CCCCCC)(CCCCCC)CCCCCC.F[P-](F)(F)(F)(F)F, the activity coefficient in series [1] (313.15 K) was 1.64 and 1.8; in series [1] (333.15 K), 1.4 and 1.44; in series [1] (353.15 K) it was 1.17 and 1.2; in series [1] (363.15 K), 1.11 and 1.14.

As for `C1CCCC1` [cyclopentane] + CCCCCCCCCCCCCC[P+](CCCCCC)(CCCCCC)CCCCCC.F[P-](F)(F)(F)(F)F, the activity coefficient was 1.35 and 1.34 in series [1] (313.15 K); 1.08 and 1.14 in series [1] (333.15 K); 0.901 and 0.941 in series [1] (353.15 K); 0.883 and 0.871 in series [1] (363.15 K).

With `CCCCCCCCCC` [decane] + CCCCCCCCCCCCCC[P+](CCCCCC)(CCCCCC)CCCCCC.F[P-](F)(F)(F)(F)F, the activity coefficient in series [1] (313.15 K) is 3.28 and 3.32; in series [1] (333.15 K), 2.62 and 2.9; in series [1] (353.15 K), 2.29 and 2.31; in series [1] (363.15 K), 2.19 and 2.24.

In the case of `CCO` [ethanol] + CCCCCCCCCCCCCC[P+](CCCCCC)(CCCCCC)CCCCCC.F[P-](F)(F)(F)(F)F, the activity coefficient was 2.21 and 2.31 in series [1] (313.15 K); 1.51 and 1.49 in series [1] (333.15 K); 0.989 and 1.01 in series [1] (353.15 K); 0.893 and 0.911 in series [1] (363.15 K).

On to `CCc1ccccc1` [ethylbenzene] + CCCCCCCCCCCCCC[P+](CCCCCC)(CCCCCC)CCCCCC.F[P-](F)(F)(F)(F)F, for which the activity coefficient in series [1] (313.15 K) is 0.961 and 1; in series [1] (333.15 K) it was 0.783 and 0.835; in series [1] (353.15 K), 0.63 and 0.694; in series [1] (363.15 K), 0.626 and 0.642.

For the molecule `CCCCCCC` [heptane] + CCCCCCCCCCCCCC[P+](CCCCCC)(CCCCCC)CCCCCC.F[P-](F)(F)(F)(F)F, the activity coefficient was 2.25 and 2.19 in series [1] (313.15 K); 1.81 and 2 in series [1] (333.15 K); 1.65 and 1.67 in series [1] (353.15 K); 1.55 and 1.65 in series [1] (363.15 K).

As to `C=CCCCC` [hex-1-ene] + CCCCCCCCCCCCCC[P+](CCCCCC)(CCCCCC)CCCCCC.F[P-](F)(F)(F)(F)F, the activity coefficient in series [1] (313.15 K) was 1.67 and 1.7; in series [1] (333.15 K), 1.41 and 1.44; in series [1] (353.15 K), 1.14 and 1.26; in series [1] (363.15 K), 1.13 and 1.17.

Turning to `CCCCCC` [hexane] + CCCCCCCCCCCCCC[P+](CCCCCC)(CCCCCC)CCCCCC.F[P-](F)(F)(F)(F)F, the activity coefficient in series [1] (313.15 K) was 1.96 and 2.07; in series [1] (333.15 K) it was 1.69 and 1.79; in series [1] (353.15 K), 1.48 and 1.5; in series [1] (363.15 K), 1.43 and 1.47.

Consider `CO` [methanol] + CCCCCCCCCCCCCC[P+](CCCCCC)(CCCCCC)CCCCCC.F[P-](F)(F)(F)(F)F, for which the activity coefficient was 2.12 and 2.14 in series [1] (313.15 K); 1.41 and 1.44 in series [1] (333.15 K); 0.938 and 0.984 in series [1] (353.15 K); 0.855 and 0.881 in series [1] (363.15 K).

In the case of `CCCCCCCCC` [nonane] + CCCCCCCCCCCCCC[P+](CCCCCC)(CCCCCC)CCCCCC.F[P-](F)(F)(F)(F)F, the activity coefficient is 2.77 and 3.04 in series [1] (313.15 K); 2.43 and 2.47 in series [1] (333.15 K); 2.09 and 2.05 in series [1] (353.15 K); 1.98 and 2 in series [1] (363.15 K).

For `C=CCCCCCC` [oct-1-ene] + CCCCCCCCCCCCCC[P+](CCCCCC)(CCCCCC)CCCCCC.F[P-](F)(F)(F)(F)F, the activity coefficient in series [1] (313.15 K) is 2.02 and 2.2; in series [1] (333.15 K), 1.75 and 1.79; in series [1] (353.15 K), 1.51 and 1.48; in series [1] (363.15 K) it was 1.44 and 1.43.

For the molecule `CCCCCCCC` [octane] + CCCCCCCCCCCCCC[P+](CCCCCC)(CCCCCC)CCCCCC.F[P-](F)(F)(F)(F)F, the activity coefficient in series [1] (313.15 K) was 2.53 and 2.49; in series [1] (333.15 K), 2.12 and 2.18; in series [1] (353.15 K), 1.87 and 1.83; in series [1] (363.15 K), 1.81 and 1.74.

For the molecule `CCCCC` [pentane] + CCCCCCCCCCCCCC[P+](CCCCCC)(CCCCCC)CCCCCC.F[P-](F)(F)(F)(F)F, the activity coefficient was 1.77 and 1.92 in series [1] (313.15 K); 1.52 and 1.55 in series [1] (333.15 K); 1.27 and 1.29 in series [1] (353.15 K); 1.19 and 1.25 in series [1] (363.15 K).

Consider `CCCc1ccccc1` [propylbenzene] + CCCCCCCCCCCCCC[P+](CCCCCC)(CCCCCC)CCCCCC.F[P-](F)(F)(F)(F)F, for which the activity coefficient in series [1] (313.15 K) is 1.14 and 1.1; in series [1] (333.15 K), 0.939 and 0.949; in series [1] (353.15 K), 0.799 and 0.779; in series [1] (363.15 K), 0.777 and 0.735.

As to `Cc1ccccc1` [toluene] + CCCCCCCCCCCCCC[P+](CCCCCC)(CCCCCC)CCCCCC.F[P-](F)(F)(F)(F)F, the activity coefficient in series [1] (313.15 K) was 0.772 and 0.814; in series [1] (333.15 K) it was 0.671 and 0.639; in series [1] (353.15 K), 0.535 and 0.541; in series [1] (363.15 K) it was 0.506 and 0.516.

As usually defined, the mass density is mass per unit of volume. On to `CCCCCCCCCCCCCC[P+](CCCCCC)(CCCCCC)CCCCCC.F[P-](F)(F)(F)(F)F` [trihexyl(tetradecyl)phosphonium hexafluorophosphate(V)], for which the mass density in series [2] was found to be 987.15 ± 1.1 kg/m3.
